Source: ChEMBL document CHEMBL5726799, “IRAK4 inhibiting agents” (2019)

Molecular target: T1, Interleukin-1 receptor-associated kinase 4 (Homo sapiens, UniProt Q9NWZ3)
T1 sequence (Q9NWZ3 whole entry): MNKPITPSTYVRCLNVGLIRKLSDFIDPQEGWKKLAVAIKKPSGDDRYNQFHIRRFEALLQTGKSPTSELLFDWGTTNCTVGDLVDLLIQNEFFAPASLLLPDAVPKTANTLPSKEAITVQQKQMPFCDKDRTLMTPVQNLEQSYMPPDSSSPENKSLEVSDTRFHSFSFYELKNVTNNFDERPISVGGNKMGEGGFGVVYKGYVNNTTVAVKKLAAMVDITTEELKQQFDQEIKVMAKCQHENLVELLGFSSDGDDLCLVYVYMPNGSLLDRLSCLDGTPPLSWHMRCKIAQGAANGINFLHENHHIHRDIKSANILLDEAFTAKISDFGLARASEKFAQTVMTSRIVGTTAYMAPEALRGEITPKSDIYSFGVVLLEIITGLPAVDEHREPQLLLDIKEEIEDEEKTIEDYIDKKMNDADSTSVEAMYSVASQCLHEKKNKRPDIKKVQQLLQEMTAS
Experiment: Biochemical Assay: The biochemical assay is in a AlphaScreen format. The kinase reaction is based on the IRAK-4 phosphorylation of a biotin labeled peptide. The phosphopeptide is incubated with anti-phosphothreonine antibody as well as streptavidin- and protein A-coated beads. Binding of the protein-A coated beads to the antibody and the streptavidin beads to the peptide, leads to an energy transfer from one bead to the other, ultimately producing a luminescent/fluorescent signal.Generally, the kinase reaction is carried out at 1 nM IRAK4, 1.6 μM peptide, 1 mM ATP in reaction buffer 50 mM Hepes, 60 mM NaCl, 5 mM MgCl2, 0.25 mM MnCl2, 2 mM DTT, 0.01% BSA, 0.01% Tween-20) for 3.5 h at RT.

Q: How did the IC50 turn out when `N#CCNC(=O)c1cc(N)cc(-c2ccc3cnn(-c4cccc(C(F)(F)F)n4)c3c2)c1` was run?
A: < 100 nM

Q: For `CCC[C@H](N)c1cccc(-c2cc(N3CCC3)c3cnn(-c4cccc(CO)n4)c3c2)n1`, which IC50 is on record?
A: < 100 nM

Q: How did the IC50 turn out when `CCc1cccc(-c2cc(-c3nnc(C)o3)c3cnn(-c4cccc(CO)n4)c3c2)n1` was run?
A: < 100 nM

Q: For `CCC[C@H](N)c1cccc(-c2cc(N3CCOCC3)c3cnn(-c4cccc(CO)n4)c3c2)n1`, which IC50 is on record?
A: < 100 nM
